Paper PMC10920779, “Targeting P2Y14R protects against necroptosis of intestinal epithelial cells through PKA/CREB/RIPK1 axis in ulcerative colitis” (Nature Communications, 2024)
“And” between values parts separate entries of the source, which are not always exact repeats. Equal values may be shown once.

Assays:
[1] = test system: DSS-induced colitis in P2Y14R△IEC mice; assay: DSS-induced colitis in P2Y14R△IEC mice treated with HDL-16 or PPTN; type: in vivo, mouse; set-up: DAI: scale not given here; conditions: for Weight loss, diarrhea, rectal bleeding, mucosal barrier injury, inflammatory cell infiltration in P2Y14R△IEC mice / p-MLKL in P2Y14R△IEC mice (western blot): DSS-fed P2Y14R△IEC mice; for p-MLKL in P2Y14R△IEC mice (western blot): colon tissues; for DAI / Weight: P2Y14R fl/fl vil-cre mice + DSS; for Improvement of DSS colitis in P2Y14R△IEC mice: daily administration, DSS feeding P2Y14R△IEC mice
Excerpt: (§1) Male, 7-8-week-old, P2Y14R^fl/fl Vil-cre (P2Y14R^∆IEC), P2Y14R^fl/fl Lyz2-cre and WT mice with C57BL/6 J background were used to establish experimental (acute) colitis model. P2Y14R^fl/fl C57BL/6 J mice were used as control for P2Y14R^fl/fl Vil-cre (P2Y14R^∆IEC) and P2Y14R^fl/fl Lyz2-cre mice. WT C57BL/6 J mice were used for the pharmacological study of HDL-16. Colitis was induced by dextran sodium sulfate (DSS; 36-50 kDa; 3% w/v; MP Biomedicals, Solon, Ohio, USA), added to the drinking water ad libitum for 7 days. Control mice received standard drinking water. The Disease Activity Index (DAI) was evaluated daily as described previously. After 7 days of DSS treatment, mice were euthanized by carbon dioxide inhalation and the colons were measured and then processed for histological analyses, homogenized to extract protein or RNA.
The DSS group and the P2Y14R^△IEC + DSS group were rectally administered with 100 μl vehicle (saline with 0.1% DMSO). The low-dose group of mice was given 10 μM HDL-16, 100 μl per mouse, while the high-dose group was given 20 μM HDL-16, 100 μl per mouse. […]
immunoblotting with corresponding antibodies in the IECs from DSS treated mice with HDL-16 or […]
the entire experimental period. d Body weight change and disease activity index evaluation of mice change during the disease process (n = 6 mice per group). e Effects of P2Y14R antagonists on P2Y14R△IEC mice mucosal barrier function as measured by serum levels of FITC-dextran based on intestinal permeability methods (n = 6 mice per group). f The length of colons from mice 7 days after DSS treatment (n = 6 mice per group). g The H&E staining in the colon tissues of DSS-treated mice (Scale bar = 200 μm). h The immunofluorescent images of colon tissues stained with Claudin-1, Occludin and ZO-1, the principal components of tight junction (Scale bar = 200 μm). i Phosphorylation MLKL as well as its protein levels were analyzed by immunoblotting with corresponding antibodies in colon tissues (n = 5 mice per group). The data represent the mean ± SD for b, e, f and i, the data represent the mean ± SEM for d. The p-values were determined by One-way analysis of variance (ANOVA) with Tukey multiple comparison test for e, f, i, and two-way analysis of variance (ANOVA) with Šídák's multiple comparisons test for b and d. For a, g and h, […]

[2] = test system: DSS-induced colitis in mice; assay: DSS-induced acute colitis in WT mice, P2Y14R antagonist treatment (body weight, DAI, colon length, H&E, tight junction staining, TEM); type: in vivo, mouse; set-up: DAI: scale not given here; conditions: for Colitis symptoms: daily treatment, 3% DSS mice; for H&E staining: inflammatory infiltration and tissue damage / Tight junction protein expression (immunofluorescence) / Body weight loss and DAI vs DSS-exposed mice / Colon length vs mice treated with DSS only: high-dose, 20 μM; for Body weight loss and DAI vs DSS-exposed mice: daily
Excerpt: as §1
The DSS group and the P2Y14R^△IEC + DSS group were rectally administered with 100 μl vehicle (saline with 0.1% DMSO). The low-dose group of mice was given 10 μM HDL-16, 100 μl per mouse, while the high-dose group was given 20 μM HDL-16, 100 μl per mouse.
For TEM, harvest fresh tissue blocks quickly within 1-3 minutes. […] Then tissues avoid light post fixed in 1% OsO4 in PBS for 2 h at room temperature. […] The samples were moved into a 65°C oven to polymerize for more than 48 h. Ultrathin sections were cut to 60-80 nm thin with an ultramicrotome UCT6 (Leica Microsystems, Vienna) and placed on 150 meshes cuprum grids (formvar carbon coated Cu grids) with formvar film. […] Micrographs were obtained with a Jeol JEM 1400 plus electron microscope (Jeol, USA) operating at 80 kV.
For histological assessment of colitis, colon specimens were fixed in 4% paraformaldehyde (PFA) and embedded in paraffin. Five-micrometer tissue sections were stained with H&E and examined for evidence of colitis as described previously. After the paraffin sections conventional dewaxing to water, put the sections into Hematoxylin solution for 3-5 min and treat the sections with Hematoxylin Differentiation solution. […] Finally, dehydrated the sections with gradient alcohol and xylene, and sealed with neutral gum. Images were captured with a microscope (BX53, Olympus).
Immunofluorescence staining was performed using paraffin-embedded tissues as mentioned before. For immunofluorescence, the paraffin slides were deparaffinized, rehydrated, blocked and treated according to a standard protocol. […] All slides were incubated with DAPI (S2110, Solarbio) for 10 min to show the location of the nucleus. Images were captured with a confocal microscope (LSM 800, Zeiss).

HT-29 cells = assay: TSZ-induced necroptosis in HT-29 cells (CCK8 viability, PI/Hoechst, H&E staining); type: cell-based, human
Procedure: Necroptosis was induced by pretreatment with TNF‐α (20 ng·mL^−1) plus z‐VAD‐fmk (20 μM) and Smac mimetic (BV6, 2 μM) for 8 h, then stained cells with hematoxylin/eosin. For PI/Hoechst staining, cells were stained with PI and Hoechst for 20 min, then photographed with a fluorescence microscope and at least 300 cells were counted. The ratio of PI positive cells (%) = (PI positive cells) / (Hoechst positive cells) × 100%. For cell viability assay, CCK8 was added to the well and incubated for 1 − 2 h and then OD450 was measured using a multi-mode microplate reader (Cytation5, BioTek).

[3] = HDL-16-H (high dose), Day 1, individual mice
[4] = HDL-16-H (high dose), Day 2, individual mice
[5] = HDL-16-H (high dose), Day 3, individual mice
[6] = HDL-16-H (high dose), Day 4, individual mice
[7] = HDL-16-H (high dose), Day 5, individual mice
[8] = HDL-16-H (high dose), Day 6, individual mice
[9] = HDL-16-H (high dose), Day 7, individual mice
[10] = HDL-16-L (low dose), Day 1, individual mice
[11] = HDL-16-L (low dose), Day 2, individual mice
[12] = DSS-treated mice, group -H (high dose), Day 1
[13] = DSS-treated mice, group -L (low dose), Day 1
[14] = 100 μl per mouse, rectal, 3% DSS 7 days

Brc1ccc(NCc2nc3ccccc3o2)cc1 [HDL-16]
Weight loss, diarrhea, rectal bleeding, mucosal barrier injury, inflammatory cell infiltration in P2Y14R△IEC mice [1]: did not influence DSS-fed induced weight loss | p-MLKL in P2Y14R△IEC mice (western blot) [1]: did not affect DSS-induced upregulation of p-MLKL | DAI [1, 3]: 0 | Weight [1, 3]: 100% | DAI [1, 4]: 0 | Weight [1, 4]: 100% | DAI [1, 5]: 0 (5×) and 1 | Weight [1, 5]: 95% (2×) and 100% (4×) | DAI [1, 6]: 1 (5×) and 0 | Weight [1, 6]: 95% (3×) and 100% (2×) and 96% | DAI [1, 7]: 1 (2×) and 0 and 4 (2×) and 2 | Weight [1, 7]: 91% (2×) and 95% (2×) and 100% and 96% | DAI [1, 8]: 1 (3×) and 0 and 4 and 6 | Weight [1, 8]: 91% (3×) and 95% (2×) and 100% | DAI [1, 9]: 1 (2×) and 0 and 2 and 6 and 8 | Weight [1, 9]: 91% (4×) and 95% and 100% | DAI [1, 10]: 0 | Weight [1, 10]: 100% | DAI [1, 11]: 0 (5×) and 1 | Weight [1, 11]: 100% | Weight ([1]; HDL-16-L (low dose), Day 3, individual mice): 100% (5×) and 96% | Weight ([1]; HDL-16-L (low dose), Day 4, individual mice): 95% (4×) and 100% and 96% | Weight ([1]; HDL-16-L (low dose), Day 5, individual mice): 95% (4×) and 100% and 91% | Weight ([1]; HDL-16-L (low dose), Day 6, individual mice): 95% (2×) and 100% and 91% and 90% (2×) | Weight ([1]; HDL-16-L (low dose), Day 7, individual mice): 95% (3×) and 100% and 91% and 90% | Improvement of DSS colitis in P2Y14R△IEC mice [1]: barely improvement | DAI [2, 12]: 0 | Weight (%) [2, 12]: 95.5056% and 101.124% and 106.742% | Weight (%) ([2]; DSS-treated mice, group -H (high dose), Day 2): 95.5056% and 101.124% and 89.8876% and 106.742% | Weight (%) ([2]; DSS-treated mice, group -H (high dose), Day 3): 100% and 94.1176% and 94.4444% and 94.7368% | Weight (%) ([2]; DSS-treated mice, group -H (high dose), Day 4): 94.1176% and 88.2353% and 94.4444% and 88.8889% and 94.7368% | Weight (%) ([2]; DSS-treated mice, group -H (high dose), Day 5): 94.1176% and 88.2353% and 94.4444% and 83.3333% and 89.4737% | Weight (%) ([2]; DSS-treated mice, group -H (high dose), Day 6): 88.2353% and 82.3529% and 88.8889% and 83.3333% and 84.2105% | Weight (%) ([2]; DSS-treated mice, group -H (high dose), Day 7): 88.2353% and 82.3529% and 88.8889% and 77.7778% and 78.9474% | DAI [2, 13]: 0 | Weight (%) [2, 13]: 100.935% and 95.3271% and 106.542% | Weight (%) ([2]; DSS-treated mice, group -L (low dose), Day 2): 100.935% and 95.3271% and 89.7196% and 106.542% | Weight (%) ([2]; DSS-treated mice, group -L (low dose), Day 3): 94.4444% and 94.1176% and 100% | Weight (%) ([2]; DSS-treated mice, group -L (low dose), Day 4): 100% and 94.4444% and 94.1176% and 94.7368% | Weight (%) ([2]; DSS-treated mice, group -L (low dose), Day 5): 100% and 94.4444% and 88.2353% and 89.4737% and 88.8889% and 94.1176% | Weight (%) ([2]; DSS-treated mice, group -L (low dose), Day 6): 100% and 94.4444% and 88.2353% and 89.4737% | Weight (%) ([2]; DSS-treated mice, group -L (low dose), Day 7): 94.4444% and 88.8889% and 94.1176% and 84.2105% and 88.2353% | Colitis symptoms [2]: significantly suppressed colitis symptoms | H&E staining: inflammatory infiltration and tissue damage ([2]; 100 μl per mouse): improved DSS-induced inflammatory infiltration and tissue damage | Tight junction protein expression (immunofluorescence) ([2]; 100 μl per mouse): stabilized the expression of tight junction protein Claudin-1, Occludin and ZO-1 | Body weight loss and DAI vs DSS-exposed mice [2, 14]: dramatically less body weight loss and lower DAI | Colon length vs mice treated with DSS only [2, 14]: significantly longer | Comparison with the DSS-treated group (colitis parameters) ([2]; low-dose, 10 μM, 100 μl per mouse, rectal, 3% DSS 7 days): no significant difference | Necroptosis of HT-29 cells (PI staining) (HT-29 cells; TSZ-treated, pre-administrated with compound): inhibit the necroptosis

O=C(O)c1cc(-c2ccc(C3CCNCC3)cc2)c2ccc(-c3ccc(C(F)(F)F)cc3)cc2c1 [PPTN, reference compound]
Weight loss, diarrhea, rectal bleeding, mucosal barrier injury, inflammatory cell infiltration in P2Y14R△IEC mice [1]: did not influence DSS-fed induced weight loss | p-MLKL in P2Y14R△IEC mice (western blot) [1]: did not affect DSS-induced upregulation of p-MLKL | Colon length ([1]; P2Y14R fl/fl vil-cre mice + DSS + PPTN, individual mice): 7 cm and 5.4 cm and 6.3 cm and 5.6 cm and 5.8 cm and 6 cm | Improvement of DSS colitis in P2Y14R△IEC mice [1]: barely improvement | DAI ([2]; DSS-treated mice, Day 1): 0 | Weight (%) ([2]; DSS-treated mice, Day 1): 101.124% and 106.742% and 95.5056% | Weight (%) ([2]; DSS-treated mice, Day 2): 101.124% and 106.742% and 95.5056% | Weight (%) ([2]; DSS-treated mice, Day 3): 95.5056% and 106.742% | Weight (%) ([2]; DSS-treated mice, Day 4): 89.8876% and 101.124% and 95.5056% | Weight (%) ([2]; DSS-treated mice, Day 5): 89.8876% and 101.124% and 84.2697% and 95.5056% | Weight (%) ([2]; DSS-treated mice, Day 6): 84.2697% and 95.5056% and 89.8876% | Weight (%) ([2]; DSS-treated mice, Day 7): 89.8876% and 95.5056% and 84.2697% | Colon length (cm) ([2]; DSS-treated mice, Figure 7c): 6.3 cm and 7.4 cm and 5.5 cm and 5.9 cm and 6.7 cm and 7.1 cm | Colitis symptoms [2]: significantly suppressed colitis symptoms | H&E staining: inflammatory infiltration and tissue damage ([2]; 100 μl per mouse): improved DSS-induced inflammatory infiltration and tissue damage | Tight junction protein expression (immunofluorescence) ([2]; 100 μl per mouse): stabilized the expression of tight junction protein Claudin-1, Occludin and ZO-1 | Body weight loss and DAI vs DSS-exposed mice [2, 14]: dramatically less body weight loss and lower DAI | Colon length vs mice treated with DSS only [2, 14]: significantly longer | PI positive cell, PI intensity (%) (HT-29 cells; Figure 7k, TSZ-treated cells): 15.53% and 10.57% and 8.89%
